Here are results for 2 compounds from patent US20040224981A1, “Antibacterial methods and compositions” (priority 2003, published 2004).

Molecules are shown by their SMILES. Values after ≈ are worked out from the molar mass of the structure shown. Like-named read-outs stand apart in the source and are kept apart here.

The test system of assay [1] is S. hemolyticus. Put plainly: MIC against S. hemolyticus. Format: cell-based. How it is done:
The MRS inhibitor 4 alone and in combination with mupirocin (mupirocin salt and 1:1 combination) were tested against a collection of Gram-positive pathogens.
The MRS inhibitor 8 was also prepared as a fusidate and mupirocinate salt and tested for antibacterial activity against Gram-positive bacteria (Table 3). […] MRSi compound 8 alone and the fusidate and mupirocin salts were active against mupirocin-resistant S. aureus and S. epidermidis and organisms such as E. faecalis that are not susceptible to mupirocin.
The MRS inhibitor 5 acetate and mupirocin salts were tested against a collection of Gram-positive bacteria.

A further assay relates to S. aureus. Put plainly: Development of resistance following serial passage, S. aureus. The assay is classed as cell-based. Particulars: Staphylococcus aureus. As for the experimental part:
(§1) MRSi compound 5 (acetate salt), mupirocin and MRSi compound 5/mupirocin 1:1 combination were tested for development of resistance following serial passage using 19 isolates, including S. aureus, coagulase-negative staphylococci and S. pyogenes strains.

Another assay has as its system S. epidermidis. Put plainly: Development of resistance following serial passage, S. epidermidis. Format: cell-based. Particulars: Staphylococcus epidermidis. How it is done:
as §1

The subject of assay [2] is S. hemolyticus. Put plainly: Development of resistance following serial passage, S. hemolyticus. Format: cell-based. As for the experimental part:
as §1

In the next assay the test system is S. pyogenes. Put plainly: Development of resistance following serial passage, S. pyogenes. The assay is classed as cell-based. Particulars: Streptococcus pyogenes. How it is done:
as §1

In assay [3] the test system is S. aureus ATCC 29213 and 31-1334. Put plainly: Selection of spontaneous resistant mutants (mutation frequency). The assay is classed as cell-based, Staphylococcus aureus. How it is done:
Approximately, 10^9 bacteria were plated onto Mueller-Hinton agar supplemented with 10% horse blood and containing various concentrations of the test compounds alone and in combination. After 24 and 48 hours of incubation at 35° C., the bacterial colonies were counted and the frequencies of mutation were determined relative to the total viable count of organisms that were plated. Resistant clones were re-plated once on plates containing the same concentration of agent that was used for the selection.

Assay [4] has as its system S. aureus RN4220 (pYH4-MRS). Put plainly: Mode of action: MIC with MRS over-production. Format: cell-based. To be noted: S. aureus RN4220 (pYH4-MRS), +aTC (MRS over-expression).
Protocol: The strain expresses high levels of MRS upon the addition of 0.01 μg/mL of anyhdrotetracycline.
In assay [5] the test system is mupirocin-resistant S. aureus. To be noted: cited from earlier work.

`C=C(F)c1sc(CNCCCNc2cc(=O)c3ccccc3[nH]2)c(C)c1Br` [MRSi Cmpd 5 acetate, N-(4-bromo-5-(1-fluorovinyl)-3-methylthiophen-2-ylmethyl)-N′-(1H-quinolin-4-one)propane-1,3-diamine]: the MIC (in general, the lowest concentration that inhibits growth of the organism) with S. hemolyticus [1] (Table 4, S. hemolyticus NRS50, read-out: MIC) was 0.12 µg/mL; in the assay on S. hemolyticus [1] (Table 4, S. hemolyticus NRS116, read-out: MIC) it was 0.25 µg/mL; with S. aureus (ATCC29213, read-out: Final MIC after 20 passages, S. aureus ATCC 29213) it was 4 µg/mL; with S. aureus (ATCC29213, read-out: Initial MIC, S. aureus ATCC 29213) it was 0.06 µg/mL; in the assay on S. aureus (ATCC43300, read-out: Final MIC after 20 passages, S. aureus ATCC 43300 (ORSA)), 1 µg/mL; with S. aureus (ATCC43300, read-out: Initial MIC, S. aureus ATCC 43300 (ORSA)), 0.06 µg/mL. In addition, the minimum inhibitory concentration (MIC) with S. aureus (NRS103, read-out: Final MIC after 20 passages, S. aureus NRS103 (ORSA)) stood at 1 µg/mL; with S. aureus (NRS103, read-out: Initial MIC, S. aureus NRS103 (ORSA)) it was 0.12 µg/mL; with S. aureus (NRS107, read-out: Final MIC after 20 passages, S. aureus NRS107 (HL-MupR)), 0.5 µg/mL; in the assay on S. aureus (NRS107, read-out: Initial MIC, S. aureus NRS107 (HL-MupR)), 0.015 µg/mL; with S. aureus (read-out: Final MIC after 20 passages, S. aureus 10-420 (HL-MupR)) it was 8 µg/mL; in the assay with S. aureus (read-out: Final MIC after 20 passages, S. aureus 25-670 (HL-MupR)), 8 µg/mL. For the same compound, the minimal inhibitory concentration (MIC) in the assay on S. aureus (read-out: Final MIC after 20 passages, S. aureus 31-1334 (LL-MupR)) was 8 µg/mL; in the assay with S. aureus (read-out: Final MIC after 20 passages, S. aureus 87-2797 (HL-MupR)), 16 µg/mL; in the assay on S. aureus (read-out: Final MIC after 20 passages, S. aureus 1079077 (ORSA)), 16 µg/mL; in the assay on S. aureus (read-out: Final MIC after 20 passages, S. aureus 1079101 (HL-MupR)), 16 µg/mL; in the assay on S. aureus (read-out: Final MIC after 20 passages, S. aureus LZ6 (HL-MupR)), 2 µg/mL; in the assay on S. aureus (read-out: Initial MIC, S. aureus 1079077 (ORSA)), 0.25 µg/mL. The MIC in the assay with S. epidermidis (NRS8, read-out: Initial MIC, S. epidermidis NRS8 (LL-MupR)) stood at 0.06 µg/mL; in the assay on S. epidermidis (read-out: Final MIC after 20 passages, S. epidermidis 936528 (HL-MupR)), 0.5 µg/mL; in the assay with S. epidermidis (read-out: Final MIC after 20 passages, S. epidermidis 936606 (Oxa-R)), 16 µg/mL; with S. epidermidis (read-out: Initial MIC, S. epidermidis 936528 (HL-MupR)) it was 0.03 µg/mL; in the assay on S. epidermidis (read-out: Initial MIC, S. epidermidis 936606 (Oxa-R)), 0.06 µg/mL; in the assay with S. hemolyticus [2] (NRS116, read-out: Final MIC after 20 passages) it was 16 µg/mL. Besides, the minimum inhibitory concentration (MIC) in the assay with S. hemolyticus [2] (NRS116, read-out: Initial MIC) came to 0.12 µg/mL; in the assay on S. pyogenes (ATCC19615, read-out: Final MIC after 20 passages), 1 µg/mL; in the assay on S. pyogenes (read-out: Final MIC after 20 passages), 1 µg/mL.
Consider `C/C(=C\C(=O)OCCCCCCCCC(=O)O)C[C@@H]1OC[C@H](C[C@@H]2O[C@H]2[C@@H](C)[C@H](C)O)[C@@H](O)[C@H]1O` [Mupirocin, Pseudomonic acid A], for which the minimum inhibitory concentration (MIC) was 0.12 µg/mL in the assay on S. hemolyticus [1] (Table 2, S. hemolyticus NRS50, read-out: MIC); 0.25 µg/mL with S. hemolyticus [1] (Table 2, S. hemolyticus NRS116, read-out: MIC); 0.12 µg/mL with S. hemolyticus [1] (Table 3, S. hemolyticus NRS50); 0.25 µg/mL in the assay on S. hemolyticus [1] (Table 3, S. hemolyticus NRS116); 0.12 µg/mL with S. hemolyticus [1] (Table 4, S. hemolyticus NRS50); 0.25 µg/mL in the assay on S. hemolyticus [1] (Table 4, S. hemolyticus NRS116). For the same compound, in assay [4], the MIC is 0.06 µg/mL (≈ 0.12 µM). Further, the “Mutation Frequency (48 hours)” value was 1.8 × 10^−8 in assay [3] (S. aureus 31-1334 (low level mupirocin-resistant), selecting concentration 2 x MIC); 2 × 10^−9 in assay [3] (S. aureus 31-1334 (low level mupirocin-resistant), selecting concentration 4 x MIC); <1 × 10^−9 in assay [3] (S. aureus 31-1334 (low level mupirocin-resistant), selecting concentration 8 x MIC); 1.25 × 10^−7 in assay [3] (S. aureus ATCC 29213 (mupirocin susceptible), selecting concentration 2 x MIC); 1.01 × 10^−7 in assay [3] (S. aureus ATCC 29213 (mupirocin susceptible), selecting concentration 4 x MIC); 2.57 × 10^−8 in assay [3] (S. aureus ATCC 29213 (mupirocin susceptible), selecting concentration 8 x MIC). The “MICs, high level resistance (mupA)” value in assay [5] (high level mupirocin resistance, plasmid-encoded IRS enzyme) is > 512 µg/mL. In addition, the “MIC's, low level resistance” value in assay [5] (low level mupirocin resistance (mutations in chromosomal isoleucyl tRNA synthetase)) is 8 to 256 µg/mL.
